Experimental findings from publication PMC11091220, “Metabolism-driven in vitro/in vivo disconnect of an oral ERɑ VHL-PROTAC” (Communications Biology, 2024) are described below.

In one series the target is T1, ERα (Homo sapiens, UniProt P03372).
T1 construct: endogenous in cells; host or cells: MCF7 (also MCF7 engineered to express Cas9)
T1 sequence (P03372 1-595): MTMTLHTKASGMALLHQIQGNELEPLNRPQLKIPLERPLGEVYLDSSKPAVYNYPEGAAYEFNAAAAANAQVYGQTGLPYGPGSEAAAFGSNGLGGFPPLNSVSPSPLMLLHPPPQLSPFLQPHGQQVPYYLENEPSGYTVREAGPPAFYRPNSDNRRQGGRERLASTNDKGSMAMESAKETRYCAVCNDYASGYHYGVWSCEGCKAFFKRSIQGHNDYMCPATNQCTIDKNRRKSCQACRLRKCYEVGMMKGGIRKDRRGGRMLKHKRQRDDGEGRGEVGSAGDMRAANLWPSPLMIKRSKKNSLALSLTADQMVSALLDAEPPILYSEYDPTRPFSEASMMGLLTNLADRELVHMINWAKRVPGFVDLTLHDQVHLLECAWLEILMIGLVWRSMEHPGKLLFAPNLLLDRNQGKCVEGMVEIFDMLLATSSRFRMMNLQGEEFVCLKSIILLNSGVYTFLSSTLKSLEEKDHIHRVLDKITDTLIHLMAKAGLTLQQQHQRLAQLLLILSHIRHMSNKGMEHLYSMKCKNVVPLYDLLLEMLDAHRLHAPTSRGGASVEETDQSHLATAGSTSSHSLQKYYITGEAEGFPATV
The experiment in a line: ERα high throughput imaging degradation assay in MCF7 cells. Format: cell-based. To be noted: for Dmax: MCF7; for DC50: MCF7 cells, 20 to 24 hours; for ERa degradation (% vs fulv): Figure 6e, individual replicates. As for the experimental part: Cells were fixed, permeabilised and stained with anti-ERα (rabbit clone SP1, Thermo) and anti-PR (mouse clone PgR 636, Dako) antibodies followed by secondary AlexaFluor 594 goat anti-rabbit and AlexaFluor 488 goat anti-mouse IgG antibodies. Imaging was using the Thermo Cellinsight scanner and average fluorescence intensity was analysed using Genedata.

The nature of series [1]: Plasma protein binding (RED device), mouse plasma. Format: in vitro ADME. To be noted: for Mouse fup: fraction unbound in plasma; for Mouse fup, Free: fraction free. On the procedure: Plasma protein binding was completed using a RED device. The test compound was prepared to 1 mM in 100% DMSO and further diluted in plasma to achieve a final compound concentration of 5 μM in the incubation. Phosphate buffered solution pH 7.4 (500 μL) was added to the receiver chamber of the RED device and spiked plasma (300 μL) was added to the donor chamber. The plate was covered with a gas-permeable lid and incubated for 18 h at 37 °C with 5% CO2 on an orbital shaker at 300 rpm. At the end of incubation, 50 μL of post-dialysis sample from the donor and receiver wells were aliquot into separate wells and matrix-matched with 50 μL of phosphate buffer solution pH 7.4 or blank plasma, respectively. The samples were subsequently quenched separately in 400 μL of ice-cold 100% acetonitrile. Quenched samples were shaken at 1000 rpm for 10 min and centrifuged for 30 min at 4000 rpm to pellet precipitated protein. The supernatant fraction was further diluted 1:1 with deionised water for analysis by LC MS/MS[17].

Another series has as its system PR expression. The experiment in a line: ER agonism: PR expression in Ishikawa cells by western blot. The class given is cell-based. To be noted: for PR expression (% vs 10 nM E2): 100 nM compound, individual replicates; for PR expression in the Ishikawa endometrial cell line: 100 nM, 48 h. As for the experimental part: Fig. 8 Evidence of ER agonism of AZ’6421 and compound 8 in vitro and in vivo. a 100 nM compound or 10 nM estradiol (E2) were incubated with Ishikawa cells for 48 h and lysates measured for PR expression by western blot. b Normalised rat uterine weight shown as % change from respective vehicle control after 4 days dosing. c Representative H&E stained images taken from sections of uterine horn after 4 days of dosing. d Total plasma exposure of AZ’6421 and its metabolite 8 following dosing of 100 mg/kg BID or 30 mg/kg BID AZ’6421. Plasma samples were taken 4 hr after the 4th dose, at the same time as the uterus was weighed and sectioned for H&E staining.
Cells were seeded into 12-well tissue culture-treated plates at 0.5 x 10^6 cells/well in phenol red-free RPMI containing 5% (v/v) charcoal-stripped FBS (F6765, Sigma) and left to adhere overnight. In experiments to detect agonism or for SILAC experiments, FBS was double stripped using activated charcoal. Cells were treated with compound or 0.1% DMSO vehicle control for the times indicated prior to being lysed in Pierce RIPA buffer (Thermo Scientific), supplemented with protease and phosphatase inhibitors. Expression levels of proteins were determined by standard western blotting techniques (BioRad 4%-12% Bis-Tris gels). Antibodies were diluted in 5% milk-PBS-Tween and protein levels were detected using Pierce WestDura chemiluminescent reagents followed by visualisation and quantification on a Syngene ChemiGenius Imager. Where blots were quantified, protein levels were normalised to beta-actin or vinculin control and expressed as % of vehicle control.
Background: In western blotting, separated proteins are transferred to a membrane and probed.

Series [2] in a line: Plasma exposure of AZ’6421 and metabolite 8 in CTC174 PDX mice (free, cover over DC90). The class given is in vivo, mouse. On the procedure:
Mice were randomised into groups of 5 once tumour sizes reached approximately 0.3 to 0.4 cm^3. A vehicle control or AZ’6421 1, 3, 10, 30, and 100 mg/kg were dosed orally, once daily (QD) or twice daily (BID) in 5% v/v DMSO, 20% v/v Solutol HS15 in purified water formulation. AZD9833 was dosed once daily at 100 mg/kg in 40% TEG/60% (of 12.5%) SBE-β-CD formulation. Mice were dosed for 4 days and tumours were harvested 6 hours after the last dose. Tumour tissue was split into 3 and immediately snap-frozen in liquid nitrogen for subsequent analysis. Plasma samples were also taken at the end of the study by terminal cardiac bleed under isoflurane anaesthesia to measure pharmacokinetics and ensure the expected exposure was reached during the dosing period.
Each plasma sample ([…]) was prepared using an appropriate dilution factor, and compared against an 11-point standard calibration curve (1-10000 nM) prepared in DMSO and spiked into blank plasma. Acetonitrile ([…]) was added with the internal standard, followed by centrifugation at 3000 rpm for 10 minutes. The supernatant ([…]) was then diluted in […] acetonitrile:water (75:25) and analyzed via UPLC-MS/MS.
The MS/MS instrument used was either a Waters XEVO® TQ-S, Waters XEVO® TQ-D, or API 4000 (AB Sciex). The ultra-mass spectrometer used for sample analysis was completed in the MRM mode (MS/MS). Reverse-phase HPLC with a C18 column was used to separate the analytes. A mobile phase of 99% water/0.1% formic acid (solvent A) and a solvent phase of 99% acetonitrile/0.1% formic acid (solvent B) was used. A generic LC gradient elution was used at a flow rate of 0.5 mL/min with 95% solvent A and 5% solvent B for 0.3 min after which the concentration of solvent B was increased to 95% over 0.9 min before restoring it back to 5% for the remaining 0.5 min. Mass spectrometer methods were optimised for each compound.

Values joined by “and” are separate entries in the source; they are usually repeats but may differ in a detail not shown here. Equal entries are not always repeated. Where two headings read alike, the source gives them in different places.

For the compound `Cc1ncsc1-c1ccc(CNC(=O)[C@@H]2C[C@@H](O)CN2C(=O)[C@@H](NC(=O)COCCCOCCCOc2cc(F)c([C@@H]3c4[nH]c5ccccc5c4C[C@@H](C)N3CC(C)(C)F)c(F)c2)C(C)(C)C)cc1` [Compound 5], the Degradation vs fulvestrant at ERα (Log M -7.0, listed as AZ'6421) was 101.3% and 100.0% and 100.9% and 100.7% and 96.8% and 100.1% and 99.4% and 99.7%. Further, the Dmax at ERα (MCF7, read-out: ERα imaging Dmax, 0% vehicle control, 100% fulvestrant) is 100 ± 1%. Also, the 50% degradation concentration (DC50) on ERα came to 0.4 ± 0.1 nM. The “ERa degradation (% vs fulv)” value at ERα (log[compound] (M) -6.52, listed as AZ'6421) is 99.33% and 99.93% and 101.36% and 100.78% and 99.17% and 100.53% and 100.63% and 100.07% and 100.14% and 100.02%; at ERα (log[compound] (M) -7.00, listed as AZ'6421), 101.32% and 100.02% and 100.91% and 100.71% and 100.90% and 96.75% and 100.07% and 99.39% and 100.12% and 99.67%; on ERα (log[compound] (M) -7.51, listed as AZ'6421) it was 100.79% and 99.35% and 100.85% and 99.32% and 100.51% and 92.08% and 99.13% and 99.41% and 100.03% and 98.51%; on ERα (log[compound] (M) -9.00, listed as AZ'6421), 93.78% and 65.44% and 89.78% and 70.27% and 72.25% and 75.33% and 76.06% and 75.57% and 73.41% and 66.07%; at ERα (log[compound] (M) -9.51, listed as AZ'6421), 66.11% and 33.08% and 64.57% and 26.47% and 39.19% and 41.32% and 37.58% and 27.55% and 33.68% and 36.35%; at ERα (log[compound] (M) -9.90, listed as AZ'6421), 38.07% and 5.08% and 43.62% and 16.97% and 24.51% and 17.96% and 13.58% and 13.52% and 2.56% and 2.84%. In addition, the “ERa degradation (% vs fulv)” value at ERα (log[compound] (M) -10.51, listed as AZ'6421) was 17.15% and -10.39% and 19.63% and 15.57% and 7.27% and 25.30% and 2.21% and -11.02% and -6.17% and -0.64%; on ERα (log[compound] (M) -10.90, listed as AZ'6421), 22.79% and -6.31% and 31.83% and 8.09% and 2.16% and 2.02% and 3.46% and -2.88% and 3.42% and 4.13%; at ERα (log[compound] (M) -11.51, listed as AZ'6421) it was 16.49% and -4.42% and 21.83% and -8.62% and -7.44% and -0.35% and 7.90% and 8.64% and 8.25% and -5.38%; at ERα (log[compound] (M) -12.51, listed as AZ'6421), 22.96% and -5.76% and 24.26% and -2.82% and -3.01% and -3.46% and -11.46% and 15.61% and -2.65% and -10.83%. Also, the “free in mouse plasma” value in series [1] worked out at 0.02%. The Mouse fup in series [1] was 0.0002 (1). In series [1] (mouse plasma), the “Mouse fup, Free” value was determined as 0.0002. Moreover, the “PR expression (% vs 10 nM E2)” value in the series with PR expression (listed as AZ'6421) is 0.39% and 0.32%. Moreover, the “PR expression in the Ishikawa endometrial cell line” value in the series on PR expression is listed as “failed to induce PR expression”. Besides, the “cover for target engagement by plasma drug concentration” value in series [2] (100 mg/kg dose) is on record as “free plasma exposure > free DC90”. Besides, in series [2] (100 mg/kg, from Fig. 6d), the “fraction converted to 8 within 2 hours” value was found to be 7%.
As to `C[C@@H]1Cc2c([nH]c3ccccc23)[C@@H](c2c(F)cc(OCCC(=O)O)cc2F)N1CC(C)(C)F` [Compound 8], the maximal degradation (Dmax) at ERα (0% vehicle control, 100% fulvestrant, read-out: ERα imaging Dmax) is 86 ± 4%. On ERα, this compound had a 50% degradation concentration (DC50) of 0.5 ± 0.1 nM. Further, the “ERa degradation (% vs fulv)” value is 86.16% and 85.41% and 90.14% and 89.92% and 86.68% and 83.66% and 85.58% and 80.53% at ERα (log[compound] (M) -6.52); 65.22% and 84.95% and 90.84% and 90.97% and 84.15% and 85.62% and 84.72% and 83.12% at ERα (log[compound] (M) -7.00); 87.11% and 87.02% and 90.35% and 91.70% and 85.51% and 86.15% and 84.84% and 84.81% at ERα (log[compound] (M) -7.51); 81.45% and 85.48% and 90.59% and 86.35% and 80.42% and 79.30% and 79.15% and 77.88% on ERα (log[compound] (M) -7.90); 80.28% and 76.86% and 80.57% and 81.16% and 72.31% and 67.13% and 75.58% and 76.43% on ERα (log[compound] (M) -8.52); 64.37% and 61.04% and 63.02% and 63.61% and 52.14% and 45.07% and 64.32% and 69.99% on ERα (log[compound] (M) -9.00). In addition, the “ERa degradation (% vs fulv)” value is 21.08% and 35.46% and 24.68% and 25.02% and 22.82% and 21.75% and 38.96% and 36.82% at ERα (log[compound] (M) -9.51); 20.56% and 6.22% and 6.66% and 18.09% and -5.08% and 24.12% and -6.47% and -3.82% at ERα (log[compound] (M) -9.90); -1.75% and -2.12% and 13.25% and 9.62% and 10.07% and 23.66% and -5.98% and -1.61% on ERα (log[compound] (M) -10.51); -0.94% and -3.29% and -5.11% and -4.81% and 28.56% and 0.42% and 1.50% and -12.94% on ERα (log[compound] (M) -10.90); 5.64% and 1.40% and -9.86% and -6.66% and -0.74% and -8.00% and -7.44% and -13.98% at ERα (log[compound] (M) -11.51); -13.89% and 2.41% and -4.59% and -2.38% and -17.18% and -3.64% and -7.40% and -8.33% on ERα (log[compound] (M) -12.51). Also, the “free in mouse plasma” value in series [1] turned out to be 0.5%. In series [1], the Mouse fup is 0.005 (1). Also, in series [1] (mouse plasma), the “difference in the free levels vs AZ’6421” value worked out at 25 fold. Also, in series [1] (mouse plasma), the “Mouse fup, Free” value is 0.005. Also, the “PR expression (% vs 10 nM E2)” value in the series on PR expression was 4.18% and 6.31%. Further, the “PR expression in the Ishikawa endometrial cell line” value with PR expression is “induced PR expression to a similar extent as AZD9496”. Besides, in series [2] (AZ’6421 efficacy study), the “free plasma concentration, fold above the compounds DC90” value is listed as > 10 fold. Also, the “free plasma concentration, fold higher than free AZ’6421” value in series [2] (steady state, AZ’6421 efficacy study) is listed as ~ 10 fold.

Broadly, the Dmax is the largest share of the target that was removed. In general, DC50 refers to the concentration at which degradation of the target reaches its halfway point.
